Results reported in patent publication US9221809B2 (MERCK SHARP & DOHME CORP., priority 2011, dated 2015).

These compounds were tested against IRAK4 (Homo sapiens (Human), UniProt Q9NWZ3) (assay: IRAK4 kinase activity, IMAP fluorescence polarization assay). Settings: 100 μM ATP, 0.5 nM GST tagged IRAK4; read-out: IRAK4 IC50.
Type: biochemical
In short: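 Fluorescence polarization (IMAP nanoparticle binding of phosphopeptide) reports activity after a 30 min, 25 °C reaction. Conditions: 100 μM ATP, 0.5 nM GST-IRAK4, 100 nM fluorescent peptide, 10 mM Tris pH 7.2, 1 mM MgCl2, 1 mM DTT, 0.01% Tween 20.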

IRAK4, sequence (Q9NWZ3 whole entry): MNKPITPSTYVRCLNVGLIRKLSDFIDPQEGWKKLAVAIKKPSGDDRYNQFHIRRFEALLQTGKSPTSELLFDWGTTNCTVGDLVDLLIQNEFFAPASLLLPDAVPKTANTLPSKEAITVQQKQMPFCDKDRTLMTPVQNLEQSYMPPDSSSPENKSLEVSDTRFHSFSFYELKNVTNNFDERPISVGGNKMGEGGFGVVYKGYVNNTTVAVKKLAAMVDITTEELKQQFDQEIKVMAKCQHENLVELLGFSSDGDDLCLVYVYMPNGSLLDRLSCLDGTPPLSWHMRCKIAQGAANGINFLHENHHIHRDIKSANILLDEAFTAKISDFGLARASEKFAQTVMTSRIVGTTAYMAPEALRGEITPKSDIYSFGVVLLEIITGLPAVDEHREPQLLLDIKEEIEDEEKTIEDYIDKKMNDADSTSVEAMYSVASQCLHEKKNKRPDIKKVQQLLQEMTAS

| IC50 [µM] | Structure (SMILES) |
| --- | --- |
| 0.012 | O=c1[nH]c(N2CCOCC2)nc(N[C@@H]2CCCNC2)c1-c1csc(-n2cccc2)n1 [Example 214, (R)-5-(2-(1H-pyrrol-1-yl)thiazol-4-yl)-2-morpholino-6-(piperidin-3-ylamino)pyrimidin-4(3H)-one] |
| 0.22 | O=c1[nH]c(N2CCOCC2)nc(N[C@@H]2CCCNC2)c1-c1ncc(F)cn1 [Example 220, (R)-5-fluoro-2′-morpholino-6′-(piperidin-3-ylamino)-[2,5′-bipyrimidin]-4′(3′H)-one] |
| 0.18 | O=c1[nH]c(C2CCN(c3ccccn3)CC2)nc(N[C@@H]2CCCNC2)c1-c1nc2ccccc2s1 [Example 242, (R)-5-(benzo[d]thiazol-2-yl)-6-(piperidin-3-ylamino)-2-(1-(pyridin-2-yl)piperidin-4-yl)pyrimidin-4(3H)-one] |

Same assay, conditions: 100 μM ATP; read-out: IC50

| Structure (SMILES) | IC50 [µM] |
| --- | --- |
| O=c1[nH]c(N2CCOCC2)nc(NC2CN3CCC2CC3)c1-c1nc2ccccc2s1 (stereo not drawn) [Example 208, 5-(benzo[d]thiazol-2-yl)-2-morpholino-6-(quinolidin-3-ylamino)pyrimidin-4(3H)-one] | 0.05 |
| C[C@H]1C[C@@H](Nc2nc(N3CCOCC3)[nH]c(=O)c2-c2nc3ccccc3s2)CN1 [Example 209, 5-(benzo[d]thiazol-2-yl)-6-(((3R,5S)-5-methylpyrrolidin-3-yl)amino)-2-morpholinopyrimidin-4(3H)-one] | 0.359 |
| C[C@@H]1C[C@@H](Nc2nc(N3CCOCC3)[nH]c(=O)c2-c2nc3ccccc3s2)CN1 [Example 210, 5-(benzo[d]thiazol-2-yl)-6-(((3R,5R)-5-methylpyrrolidin-3-yl)amino)-2-morpholinopyrimidin-4(3H)-one] | 0.15 |
| O=c1[nH]c(N2CCOCC2)nc(N[C@@H]2C[C@@H]3CN[C@H]2C3)c1-c1nc2ccccc2s1 [Example 211, 6-((1S,4R,6R)-2-azabicyclo[2.2.1]heptan-6-ylamino)-5-(benzo[d]thiazol-2-yl)-2-morpholinopyrimidin-4(3H)-one] | 0.191 |
| O=c1[nH]c(N2CCOCC2)nc(N[C@H]2CNCC(F)(F)C2)c1-c1nc2ccccc2s1 [Example 212, (R)-5-(benzo[d]thiazol-2-yl)-6-((5,5-difluoropiperidin-3-yl)amino)-2-morpholinopyrimidin-4(3H)-one] | 0.792 |
| O=c1[nH]c(N2CCOCC2)nc(N[C@H]2CNCC[C@@H]2F)c1-c1nc2ccccc2s1 [Example 213, 5-(benzo[d]thiazol-2-yl)-6-(((3S,4S)-4-fluoropiperidin-3-yl)amino)-2-morpholinopyrimidin-4(3H)-one] | 0.014 |
| O=c1[nH]c(N2CCOCC2)nc(N[C@@H]2CCCNC2)c1-c1cccc(-n2cccc2)n1 [Example 215, (R)-5-(6-(1H-pyrrol-1-yl)pyridin-2-yl)-2-morpholino-6-(piperidin-3-ylamino)pyrimidin-4(3H)-one] | 0.185 |
| O=C1CCCN1c1cccc(-c2c(N[C@@H]3CCCNC3)nc(N3CCOCC3)[nH]c2=O)n1 [Example 216, (R)-2-morpholino-5-(6-(2-oxopyrrolidin-1-yl)pyridin-2-yl)-6-(piperidin-3-ylamino)pyrimidin-4(3H)-one] | 0.258 |
| O=c1[nH]c(N2CCOCC2)nc(N[C@@H]2CCCNC2)c1-c1csc(-n2cccn2)n1 [Example 217, (R)-5-(2-(1H-pyrazol-1-yl)thiazol-4-yl)-2-morpholino-6-(piperidin-3-ylamino)pyrimidin-4(3H)-one] | 0.082 |
| O=c1[nH]c(N2CCOCC2)nc(N[C@@H]2CCCNC2)c1-c1csc(-c2ccccc2)n1 [Example 218, (R)-2-morpholino-5-(2-phenylthiazol-4-yl)-6-(piperidin-3-ylamino)pyrimidin-4(3H)-one] | 0.007 |
| O=c1[nH]c(N2CCOCC2)nc(N[C@@H]2CCCNC2)c1-c1csc(-n2ccnc2)n1 [Example 219, (R)-5-(2-(1H-imidazol-1-yl)thiazol-4-yl)-2-morpholino-6-(piperidin-3-ylamino)pyrimidin-4(3H)-one] | 0.004 |
| N#Cc1cccc(-c2c(N[C@@H]3CCCNC3)nc(N3CCOCC3)[nH]c2=O)n1 [Example 221, (R)-6-(2-morpholino-6-oxo-4-(piperidin-3-ylamino)-1,6-dihydropyrimidin-5-yl)picolinonitrile] | 0.167 |
| N#Cc1ccnc(-c2c(N[C@@H]3CCCNC3)nc(N3CCOCC3)[nH]c2=O)c1 [Example 222, (R)-2-(2-morpholino-6-oxo-4-(piperidin-3-ylamino)-1,6-dihydropyrimidin-5-yl)isonicotinonitrile] | 5.62 |
| N#Cc1ccc(-c2c(N[C@@H]3CCCNC3)nc(N3CCOCC3)[nH]c2=O)nc1 [Example 223, (R)-6-(2-morpholino-6-oxo-4-(piperidin-3-ylamino)-1,6-dihydropyrimidin-5-yl)nicotinonitrile] | 0.081 |
| O=c1[nH]c(N2CCOCC2)nc(N[C@@H]2CCCNC2)c1-c1ccc(C2CC2)cn1 [Example 224, (R)-5-(5-cyclopropylpyridin-2-yl)-2-morpholino-6-(piperidin-3-ylamino)pyrimidin-4(3H)-one] | 0.512 |
| O=c1[nH]c(N2CCOCC2)nc(N[C@@H]2CCCNC2)c1-c1cc2ccccc2cn1 [Example 225, (R)-5-(isoquinolin-3-yl)-2-morpholino-6-(piperidin-3-ylamino)pyrimidin-4(3H)-one] | 0.466 |

More lines, now with the values ahead:

| IC50 [µM] | Structure (SMILES) |
| --- | --- |
| 1.4 | CCN1CCC(c2nc(N[C@@H]3CCCNC3)c(-c3nc4ccccc4s3)c(=O)[nH]2)CC1 [Example 227] |
| 0.66 | CC(C)N1CCC(c2nc(N[C@@H]3CCCNC3)c(-c3nc4ccccc4s3)c(=O)[nH]2)CC1 [Example 228, (R)-5-(1,3-benzothiazol-2-yl)-6-[[(3R)-piperidin-3-yl]amino]-2-[1-(propan-2-yl)piperidin-4-yl]-3,4-dihydro-pyrimidin-4-one] |
| 0.34 | O=c1[nH]c(C2CCN(CC3CC3)CC2)nc(N[C@@H]2CCCNC2)c1-c1nc2ccccc2s1 [Example 229, 5-(1,3-benzothiazol-2-yl)-2-[1-(cyclo-propylmethyl)piperidin-4-yl]-6-[[(3R)-piperidin-3-yl]amino]-3,4-dihydropyrimidin-4-one] |
| 0.73 | O=c1[nH]c(C2CCN(C3CCC3)CC2)nc(N[C@@H]2CCCNC2)c1-c1nc2ccccc2s1 [Example 230, (R)-5-(1,3-benzothiazol-2-yl)-2-[1-cyclo-butylpiperidin-4-yl)-6-[(piperidin-3-yl)amino]-3,4-dihydropyrimidin-4-one] |
| 0.62 | O=c1[nH]c(C2CCN(C3CCCC3)CC2)nc(N[C@@H]2CCCNC2)c1-c1nc2ccccc2s1 [Example 231, 5-(1,3-benzothiazol-2-yl)-2-(1-cyclo-pentylpiperidin-4-yl)-6-[[(3R)-piperidin-3-yl]amino]-3,4-dihydropyrimidin-4-one] |
| 0.45 | O=c1[nH]c(C2CCN(C3CCCCC3)CC2)nc(N[C@@H]2CCCNC2)c1-c1nc2ccccc2s1 [Example 232, (R)-5-(1,3-benzothiazol-2-yl)-2-(1-cyclo-hexylpiperidin-4-yl)-6-[(piperidin-3-yl)amino]-3,4-dihydropyrimidin-4-one] |
| 0.18 | O=c1[nH]c(C2CCN(C3CCOC3)CC2)nc(N[C@@H]2CCCNC2)c1-c1nc2ccccc2s1 (stereo partly drawn) [Example 233, 5-(1,3-benzothiazol-2-yl)-2-[1-(oxolan-3-yl)piperidin-4-yl]-6-[[(3R)-piperidin-3-yl]amino]pyrimidin-4-ol] |
| 0.44 | O=c1[nH]c(C2CCN(C3CCOCC3)CC2)nc(N[C@@H]2CCCNC2)c1-c1nc2ccccc2s1 [Example 234, (R)-5-(benzo[d]thiazol-2-yl)-6-(piperidin-3-ylamino)-2-(1-(tetrahydro-2H-pyran-4-yl)piperidin-4-yl)pyrimidin-4(3H)-one] |
| 0.55 | CCS(=O)(=O)N1CCC(c2nc(N[C@@H]3CCCNC3)c(-c3nc4ccccc4s3)c(=O)[nH]2)CC1 [Example 236] |
| 0.21 | CC(C)S(=O)(=O)N1CCC(c2nc(N[C@@H]3CCCNC3)c(-c3nc4ccccc4s3)c(=O)[nH]2)CC1 [Example 237, 5-(1,3-benzothiazol-2-yl)-6-[[(3R)-piperidin-3-yl]amino]-2-[1-(propane-2-sulfonyl)piperidin-4-yl]-3,4-dihydropyrimidin-4-one] |
| 0.17 | O=c1[nH]c(C2CCN(S(=O)(=O)C3CC3)CC2)nc(N[C@@H]2CCCNC2)c1-c1nc2ccccc2s1 [Example 238, (R)-5-(1,3-benzothiazol-2-yl) 2-[1-(cyclopropane-sulfonyl)piperidin-4-yl]-6-[(piperidin-3-yl)amino]-3,4-dihydropyrimidin-4-one] |
| 0.2 | CNC(=O)N1CCC(c2nc(N[C@@H]3CCCNC3)c(-c3nc4ccccc4s3)c(=O)[nH]2)CC1 [Example 240, (R)-4-[5-(1,3-benzo-thiazol-2-yl)-6-oxo-4-[[(3R)-piperidin-3-yl]amino]-1,6-dihydro-pyrimidin-2-yl]-N-methyl-piperidine-1-carboxamide] |
| 0.18 | O=c1[nH]c(C2CCN(c3cnccn3)CC2)nc(N[C@@H]2CCCNC2)c1-c1nc2ccccc2s1 [Example 243, (R)-5-(benzo[d]thiazol-2-yl)-6-(piperidin-3-ylamino)-2-(1-(pyrazin-2-yl)piperidin-4-yl)pyrimidin-4(3H)-one] |
| 0.26 | O=c1[nH]c(C2CCN(c3ncccn3)CC2)nc(N[C@@H]2CCCNC2)c1-c1nc2ccccc2s1 [Example 244, (R)-5-(benzo[d]thiazol-2-yl)-6-(piperidin-3-ylamino)-2-(1-(pyrimidin-2-yl)piperidin-4-yl)pyrimidin-4(3H)-one] |
| 0.089 | O=c1[nH]c(C2CCN(c3cccnc3)CC2)nc(N[C@@H]2CCCNC2)c1-c1nc2ccccc2s1 [Example 245, (R)-5-(benzo[d]thiazol-2-yl)-6-(piperidin-3-ylamino)-2-(1-(pyridin-3-yl)piperidin-4-yl)pyrimidin-4(3H)-one] |

Same assay, conditions: 100 μM ATP; read-out: IRAK4 IC50

| IC50 [µM] | Structure (SMILES) |
| --- | --- |
| 2.4 | O=c1[nH]c(N2CCOCC2)nc(N[C@@H]2CCCNC2)c1-c1nc(-c2ccc(C(F)(F)F)cn2)cs1 [Example 206] |
| 0.021 | O=c1[nH]c(N2CCOCC2)nc(N[C@@H]2CCCNC2)c1-c1nc(-c2ccccn2)cs1 [Example 207] |
